Measured values taken from ChEMBL document CHEMBL4422618, “Translational impact of novel widely pharmacological characterized mofezolac-derived COX-1 inhibitors combined with bortezomib on human multiple myeloma cell lines viability” (Eur J Med Chem, 2019).
pIC50: −log10 of the molar value. Active and inactive are the calls of the source. No cut-off for these calls is given here.

How the values were obtained:
Platelet = assay: Antiplatelet activity in human platelet rich plasma assessed as inhibition of arachidonic acid-induced platelet aggregation preincubated for 2 mins followed by arachidonic acid addition by turbidimetric method; type: functional, cell-based
Plasma [1] = assay: Anticoagulant activity in human platelet poor plasma assessed as activated partial thromboplastin time at 100 uM incubated for 15 mins at room temperature and subsequent incubation for 2 mins at 37 degreeC followed by cephalin addition and measured after 2 mins for every secs in presence of CaCl2; type: functional
Plasma [2] = assay: Anticoagulant activity in human platelet poor plasma assessed as prothrombin time at 100 uM incubated for 15 mins at room temperature and subsequent incubation for 2 mins at 37 degreeC followed by PBS addition and measured after 3 mins for every secs in presence of calcium thromboplastin; type: functional
[3] = Hemolytic activity in erythrocytes (unknown origin) at 100 uM after 3 hrs by spectrophotometric analysis; type: ADME, cell-based, Erythrocyte; conditions: read-out: Activity
[4] = Mutagenicity in Salmonella typhimurium TA97 at 500 uM by Ames test; type: toxicity; conditions: salmonella enterica subsp. enterica serovar typhimurium
[5] = Mutagenicity in Salmonella typhimurium TA98 at 500 uM by Ames test; type: toxicity; conditions: salmonella enterica subsp. enterica serovar typhimurium
[6] = Mutagenicity in Salmonella typhimurium TA100 at 500 uM by Ames test; type: toxicity; conditions: salmonella enterica subsp. enterica serovar typhimurium
[7] = Mutagenicity in Salmonella typhimurium TA102 at 500 uM by Ames test; type: toxicity; conditions: salmonella enterica subsp. enterica serovar typhimurium
[8] = Genotoxicity in Escherichia coli PQ35 at 500 uM after overnight incubation by SOS chromotest; type: toxicity
[9] = Genotoxicity in Escherichia coli PQ37 at 500 uM after overnight incubation by SOS chromotest; type: toxicity
NCI-H929 [10] = assay: Cytotoxicity against human NCI-H929 cells assessed as reduction in cell viability at […] after 48 hrs by CCK8 assay; type: functional, cell-based
RPMI-8226 [11] = assay: Cytotoxicity against human RPMI8226 cells assessed as reduction in cell viability at 42 nM after 48 hrs by CCK8 assay relative to control; type: functional
NCI-H929 [12] = assay: Potentiation of bortezomib-induced cytotoxicity against human NCI-H929 cells assessed as reduction in cell viability at […] after 48 hrs in presence of bortezomib by CCK8 assay; type: functional, cell-based
RPMI-8226 [13] = assay: Potentiation of bortezomib-induced cytotoxicity against human RPMI8226 cells assessed as reduction in cell viability at […] after 48 hrs in presence of bortezomib by CCK8 assay; type: functional
NCI-H929 [14] = assay: Cell cycle arrest in human NCI-H929 cells assessed as accumulation at G0/G1 phase at […] in presence of bortezomib after 48 hrs by propidium iodide/RNase staining based flow cytometric method relative to bortezomib alone; type: functional
NCI-H929 [15] = assay: Cell cycle arrest in human NCI-H929 cells assessed as accumulation at S phase at […] in presence of bortezomib after 48 hrs by propidium iodide/RNase staining based flow cytometric method relative to bortezomib alone; type: functional
RPMI-8226 [16] = assay: Cell cycle arrest in human RPMI8226 cells assessed as accumulation at G0/G1 phase at […] after 48 hrs by propidium iodide/RNase staining based flow cytometric method; type: functional
RPMI-8226 [17] = assay: Cell cycle arrest in human RPMI8226 cells assessed as accumulation at S phase at […] after 48 hrs by propidium iodide/RNase staining based flow cytometric method; type: functional
NCI-H929 [18] = assay: Induction of apoptosis in human NCI-H929 cells assessed as early apoptotic cells at […] after 48 hrs by Annexin-V/propidium iodide staining based flow cytometric method (reference value: 17.1%); type: functional
NCI-H929 [19] = assay: Induction of apoptosis in human NCI-H929 cells assessed as late apoptotic cells at […] after 48 hrs by Annexin-V/propidium iodide staining based flow cytometric method (reference value: 0.23%); type: functional
NCI-H929 [20] = assay: Induction of apoptosis in human NCI-H929 cells assessed as necrotic cells at […] after 48 hrs by Annexin-V/propidium iodide staining based flow cytometric method (reference value: 0.0034%); type: functional
NCI-H929 [21] = assay: Induction of apoptosis in human NCI-H929 cells assessed as viable cells at […] after 48 hrs by Annexin-V/propidium iodide staining based flow cytometric method (reference value: 82.6%); type: functional; conditions: NCI-H929, 48 h, read-out: Activity
NCI-H929 [22] = assay: Induction of apoptosis in human NCI-H929 cells assessed as early apoptotic cells at […] after 48 hrs in presence of bortezomib by Annexin-V/propidium iodide staining based flow cytometric method (reference value: 17.1%); type: functional
NCI-H929 [23] = assay: Induction of apoptosis in human NCI-H929 cells assessed as late apoptotic cells at […] after 48 hrs in presence of bortezomib by Annexin-V/propidium iodide staining based flow cytometric method (reference value: 0.23%); type: functional
NCI-H929 [24] = assay: Induction of apoptosis in human NCI-H929 cells assessed as necrotic cells at […] after 48 hrs in presence of bortezomib by Annexin-V/propidium iodide staining based flow cytometric method (reference value: 0.0034%); type: functional
NCI-H929 [25] = assay: Induction of apoptosis in human NCI-H929 cells assessed as viable cells at […] after 48 hrs in presence of bortezomib by Annexin-V/propidium iodide staining based flow cytometric method (reference value: 82.6%); type: functional; conditions: NCI-H929, 48 h, read-out: Activity
RPMI-8226 [26] = assay: Induction of apoptosis in human RPMI8226 cells assessed as early apoptotic cells at […] after 48 hrs in presence of bortezomib by Annexin-V/propidium iodide staining based flow cytometric method (reference value: 1.05%); type: functional
RPMI-8226 [27] = assay: Induction of apoptosis in human RPMI8226 cells assessed as late apoptotic cells at […] after 48 hrs in presence of bortezomib by Annexin-V/propidium iodide staining based flow cytometric method (reference value: 0.21%); type: functional
RPMI-8226 [28] = assay: Induction of apoptosis in human RPMI8226 cells assessed as necrotic cells at […] after 48 hrs in presence of bortezomib by Annexin-V/propidium iodide staining based flow cytometric method (reference value: 0.090%); type: functional
RPMI-8226 [29] = assay: Induction of apoptosis in human RPMI8226 cells assessed as viable cells at […] after 48 hrs in presence of bortezomib by Annexin-V/propidium iodide staining based flow cytometric method (reference value: 98.7%); type: functional; conditions: RPMI-8226, 48 h, read-out: Activity
RPMI-8226 [30] = assay: Cell cycle arrest in human RPMI8226 cells assessed as accumulation at G0/G1 phase at […] in presence of bortezomib after 48 hrs by propidium iodide/RNase staining based flow cytometric method relative to bortezomib; type: functional
RPMI-8226 [31] = assay: Cell cycle arrest in human RPMI8226 cells assessed as accumulation at S phase at […] in presence of bortezomib after 48 hrs by propidium iodide/RNase staining based flow cytometric method relative to bortezomib; type: functional
RPMI-8226 [32] = assay: Cell cycle arrest in human RPMI8226 cells assessed as reduction in accumulation at G2/M phase at […] in presence of bortezomib after 48 hrs by propidium iodide/RNase staining based flow cytometric method relative to bortezomib; type: functional

pIC50 (Platelet): 6.35
Structure (SMILES): COc1ccc(-c2noc(CC(=O)O)c2-c2ccc(OC)cc2)cc1 [MOFEZOLAC]
APTT (Plasma [1]): 50.8 s | PT (Plasma [2]): 14.2 s | hemolysis at 3 h, 100 µM [3]: 0% | Activity [4]: Non-Toxic | Activity [5]: Non-Toxic | Activity [6]: Non-Toxic | Activity [7]: Non-Toxic | Activity [8]: Non-Toxic | Activity [9]: Non-Toxic | Activity (NCI-H929 [10]): inactive | Activity (RPMI-8226 [11]): 1% | Activity (NCI-H929 [12]): inactive | Activity (RPMI-8226 [13]): 56% | Activity (NCI-H929 [14]): 15% | Activity (NCI-H929 [15]): 15% | Activity (RPMI-8226 [16]): inactive | Activity (RPMI-8226 [17]): inactive | Activity (NCI-H929 [18]): 18.7% | Activity (NCI-H929 [19]): 0.13% | Activity (NCI-H929 [20]): 0% | viability at […] (NCI-H929 [21]): 81.1% | Activity (NCI-H929 [22]): 64.3% | Activity (NCI-H929 [23]): 0.24% | Activity (NCI-H929 [24]): 0% | viability at […] (NCI-H929 [25]): 35.4% | Activity (RPMI-8226 [26]): 7.86% | Activity (RPMI-8226 [27]): 0.31% | Activity (RPMI-8226 [28]): 0.006% | viability at […] (RPMI-8226 [29]): 91.8% | Activity (RPMI-8226 [30]): Active | Activity (RPMI-8226 [31]): Active | Activity (RPMI-8226 [32]): Active
